Data reported in US20210107865A1, “ALIPHATIC AMINE AND ITS PREPARATION METHOD AND USE” (COVESTRO D[…], priority 2017, published 2021).

Experiment: Solubility of lysine in amine compounds and solvents
Assay type: physicochemical
Conditions: at 100° C. under normal pressure

NCCCC[C@H](N)C(=O)O [lysine, L-lysine]
solubility of lysine in 1,5-pentanediamine (in 1,5-pentanediamine): solubility of lysine in 1,5-pentanediamine is 33 g/100 g,
solubility of lysine in 1,6-hexanediamine (in 1,6-hexanediamine): is 4.6 g/100 g, measured at 100 °C under normal pressure.
solubility of lysine in cyclohexanol (in cyclohexanol): Ltd. The solubility of lysine in cyclohexanol is 0.01 g/100 g/100 g
solubility of lysine in ethylene glycol (in ethylene glycol): The solubility of lysine in ethylene glycol is 20 g/100 g,
solubility of lysine in isophoronediamine (in isophoronediamine): is 5.2 g/100 g, measured at 100 °C under normal pressure.
